Experimental findings from US20170281470A1, “METHOD AND APPARATUS FOR DRY GRANULATION” (ATACAMA LABS OY, priority 2006, published 2017) are described below.

The data set is described as follows: Agglomeration during storage at room temperature and ambient humidity. The format is physicochemical. To be noted: stored in room temperature and ambient humidity.

In the case of `CN(C)C(=N)N=C(N)N` [100% metformin fine powder, metformin], the agglomeration during storage entry was “heavy agglomeration”.
